Experimental data published in US20260070924A1, “INDAZOLE MACROCYCLES AND THEIR USE” (BLOSSOMHILL THERAPEUTICS, INC., priority 2022, published 2026).

Legend:
Assay in all cases: Cell proliferation panel (CellTiter-Glo 2.0, 5 days)
Format in all cases: cell-based
[1] = test system: H358; conditions: Bronchioalveolar carcinoma NSCLC
Protocol: (§1) Cell proliferation assay was carried out in a panel of 108 cell lines. 1000 (attached cells) or 3000 (suspension cells) cells/100 μl per well were seeded in 96 well black plate with a clear bottom (Corning #3904). Compounds were added using Tecan D300e Digital Dispenser in 1:3 titration for 9 doses. Plates were incubated for 5 days at 37° C. and 5% CO2. Cell proliferation was measured using CellTiter-Glo 2.0 luciferase-based ATP detection assay (Promega, Madison, WI) at 50 μl per well following the manufacturer's protocol. Plates were then read on a TECAN Sparks multimode microplate reader. Data was analyzed using GraphPad Prism 9 (GraphPad Software, San Diego, CA) to obtain IC50 values. IC50 values were determined using Prism software (GraphPad Software, San Diego, CA).

[2] = test system: JPC3; conditions: Lung carcinoma
Protocol: as §1

[3] = test system: MV-4-11; conditions: Biphenotypic B-Myelomonocytic Leukemia
Protocol: as §1

[4] = test system: U138-MG; conditions: Brain glioblastaoma
Protocol: as §1

[5] = test system: H2444; conditions: Lung adenocarcinoma NSCLC
Protocol: as §1

[6] = test system: TOV-112D; conditions: Endometrioid ovarian cancer
Protocol: as §1

[7] = test system: SW480; conditions: Colorectal adenocarcinoma
Protocol: as §1

[8] = test system: MC38; conditions: Murine colon adenocarcinoma
Protocol: as §1

[9] = test system: H23; conditions: Lung adenocarcinoma NSCLC
Protocol: as §1

[10] = test system: H727; conditions: Bronchial lung carcinoid
Protocol: as §1

[11] = test system: H211; conditions: Small cell lung carcinoma
Protocol: as §1

[12] = test system: KASUMI-4; conditions: Chronic Myeloblastic Leukemia
Protocol: as §1

[13] = test system: H2291; conditions: Lung adenocarcinoma NSCLC
Protocol: as §1

[14] = test system: HCC1569; conditions: Mammary gland metaplastic carcinoma
Protocol: as §1

[15] = test system: 769-P; conditions: Renal cell adenocarcinoma
Protocol: as §1

[16] = test system: HGC-27; conditions: Gastric carcinoma
Protocol: as §1

[17] = test system: H2228; conditions: Lung adenocarcinoma, NSCLC
Protocol: as §1

[18] = test system: PANC0403; conditions: Pancreatic adenocarcinoma
Protocol: as §1

[19] = test system: DU4475; conditions: Breast carcinoma
Protocol: as §1

[20] = test system: HCC1419
Protocol: as §1

[21] = test system: EOL-1; conditions: Chronic eosinophilic leukemia
Protocol: as §1

[22] = test system: SW620; conditions: Colorectal adenocarcinoma
Protocol: as §1

[23] = test system: CHP-212; conditions: Neuroblastoma
Protocol: as §1

[24] = test system: Caki-2; conditions: Kidney clear cell carcinoma
Protocol: as §1

[25] = test system: GP2D; conditions: Colon adenocarcinoma
Protocol: as §1

[26] = test system: SK-BR-3; conditions: Breast adenocarcinoma
Protocol: as §1

[27] = test system: ASPC1; conditions: Pancreatic adenocarcinoma
Protocol: as §1

[28] = test system: H69; conditions: Lung small cell carcinoma
Protocol: as §1

[29] = test system: LS513; conditions: Colorectal carcinoma
Protocol: as §1

[30] = test system: SK-LU-1; conditions: Lung adenocarcinoma NSCLC
Protocol: as §1

[31] = test system: MOLM-1; conditions: Chronic myeloid leukemia
Protocol: as §1

[32] = test system: H2122; conditions: Lung adenocarcinoma NSCLC
Protocol: as §1

[33] = test system: H446; conditions: Small cell lung carcinoma
Protocol: as §1

[34] = test system: PANC0203; conditions: Pancreatic adenocarcinoma
Protocol: as §1

[35] = test system: U118-MG; conditions: Brain glioblastoma
Protocol: as §1

[36] = test system: LNCaP; conditions: Prostate carcinoma
Protocol: as §1

[37] = test system: SK-N-SH; conditions: Neuroblastoma
Protocol: as §1

[38] = test system: JeKo-1; conditions: Mantle cell lymphoma
Protocol: as §1

[39] = test system: CAPAN2; conditions: Pancreatic adenocarcinoma
Protocol: as §1

[40] = test system: T47D; conditions: Mammary gland ductal carcinoma
Protocol: as §1

[41] = test system: SW403; conditions: Colorectal adenocarcinoma
Protocol: as §1

[42] = test system: SU-DHL-6; conditions: Diffuse Large B Cell Lymphoma
Protocol: as §1

[43] = test system: H1975; conditions: Lung adenocarcinoma NSCLC
Protocol: as §1

[44] = test system: Hs746T; conditions: Gastric carcinoma
Protocol: as §1

[45] = test system: HCT116; conditions: Colorectal adenocarcinoma
Protocol: as §1

[46] = test system: MFM-223; conditions: Breast carcinoma
Protocol: as §1

Compound: CCc1nn(C)c2c1/C=C/c1n[nH]c3ccc(cc13)-c1cnn(C)c1OCCN(C)C2=O [Ex. 6, (17E)-16-ethyl-8,12,14-trimethyl-2,11,12,14-tetrahydro-8H-3,5-ethenotripyrazolo[3,4-f:3′,4′-j:4″,3″-n][1,4]oxazacyclopentadecin-13(10H)-one]
- IC50 [1]: 148 nM
- IC50 [2]: 171 nM
- IC50 [3]: 0.68 nM
- IC50 [4]: 170 nM
- IC50 [5]: 117 nM
- IC50 [6]: 62.5 nM
- IC50 [7]: 90.5 nM
- IC50 [8]: 217 nM
- IC50 [9]: 88.8 nM
- IC50 [10]: 100 nM
- IC50 [11]: 105 nM
- IC50 [12]: 11.2 nM
- IC50 [13]: 362 nM
- IC50 [14]: 151 nM
- IC50 [15]: 91.6 nM
- IC50 [16]: 100 nM
- IC50 [17]: 118 nM
- IC50 [18]: 220 nM
- IC50 [19]: 61.4 nM
- IC50 [20]: 83.8 nM
- IC50 [21]: 18.9 nM
- IC50 [22]: 76.5 nM
- IC50 [23]: 27.4 nM
- IC50 [24]: 142 nM
- IC50 [25]: 121 nM
- IC50 [26]: 38.8 nM
- IC50 [27]: 241 nM
- IC50 [28]: 100 nM
- IC50 [29]: 30.1 nM
- IC50 [30]: 166 nM
- IC50 [31]: 80.5 nM
- IC50 [32]: 73.7 nM
- IC50 [33]: 112 nM
- IC50 [34]: 126 nM
- IC50 [35]: 310 nM
- IC50 [36]: 136 nM
- IC50 [37]: 21.7 nM
- IC50 [38]: 20.6 nM
- IC50 [39]: 365 nM
- IC50 [40]: 114 nM
- IC50 [41]: 18 nM
- IC50 [42]: 28.4 nM
- IC50 [43]: 87.2 nM
- IC50 [44]: 183 nM
- IC50 [45]: 60.2 nM
- IC50 [46]: 36.8 nM
